From the supplement of paper PMC7394473

Legend:
Settings in all cases: 72 h
U2OS [1] = test: GR50 (concentration giving GR = 0.5)
Protocol: (§1)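 U2OS cells treated with full dose titrations of drug; live and dead cells counted by STACK microscopy (mKate2 nuclei, SYTOX Green) at 72 h, biological triplicates. GR and FV dose responses were fitted with 4-parameter logistic models (GR lower bound -1). GRADE (0-100) is the rescaled angle of a linear fit of FV versus GR at doses with GR >= 0, giving the percentage of the response due to cell death.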

U2OS [2] = test: fractional viability (live cells / total cells); higher = less cell death
Protocol: (§2)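 U2OS::Nuc-mKate2 cells seeded in 96-well plates and treated with eight- to ten-point half-log or log dilutions of drug in the presence of 50 nM SYTOX Green. Live (mKate2+) and dead (SYTOX+) cells were counted by IncuCyte STACK live-cell microscopy at 72 h; biological triplicates. GR is the normalised growth-rate inhibition value (Hafner 2016; 1 = untreated growth, <0 = population shrinking). FV is live/(live+dead) cells, not normalised.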

U2OS [3] = test: drug GRADE (percent of response due to cell death) (% (0-100)); higher = more death-driven response
Protocol: as §1

U2OS [4] = test: GRmin (fitted minimal GR value at highest effect) (GR value (dimensionless)); higher = less efficacious
Protocol: as §1

U2OS [5] = test: normalized growth rate inhibition value (GR) relative to untreated cells (GR value (dimensionless, 1 = untreated growth)); higher = less growth inhibition
Protocol: as §2

Cc1ccc(Nc2nccc(N(C)c3ccc4c(C)n(C)nc4c3)n2)cc1S(N)(=O)=O [Pazopanib]
Settings | GR50 [µM] | GRmin | drug GRADE
U2OS [1] | 19.9 | – | –
U2OS [3] | – | – | 47.8
U2OS [4] | – | 0.369 | –

Settings | fractional viability, U2OS [2] | normalized growth rate inhibition value, U2OS [5]
0.01 µM | 0.98 | 0.995
0.0316 µM | 0.986 | 1.04
0.1 µM | 0.98 | 1.07
0.316 µM | 0.978 | 1
1 µM | 0.979 | 1.04
3.16 µM | 0.978 | 0.915
10 µM | 0.917 | 0.68
31.6 µM | 0.763 | 0.431

CS(=O)(=O)N1CCN(Cc2cc3nc(-c4cccc5[nH]ncc45)nc(N4CCOCC4)c3s2)CC1 [Pictilisib]
Settings | GR50 [µM] | GRmin | drug GRADE
U2OS [1] | 1.48 | – | –
U2OS [3] | – | – | 30.9
U2OS [4] | – | 0.374 | –

Settings | fractional viability, U2OS [2] | normalized growth rate inhibition value, U2OS [5]
0.00100578 µM | 0.988 | 1.02
0.00317827 µM | 0.989 | 0.948
0.0100433 µM | 0.985 | 0.953
0.0317369 µM | 0.985 | 0.837
0.100289 µM | 0.975 | 0.872
0.316912 µM | 0.96 | 0.842
1.00144 µM | 0.936 | 0.628
3.16456 µM | 0.844 | 0.306
10 µM | 0.854 | 0.455

C=CCNc1ncnc2ccc(Br)cc12 [SMER28]
Settings | fractional viability, U2OS [2] | normalized growth rate inhibition value, U2OS [5]
0.01 µM | 0.977 | 1.03
0.0316 µM | 0.977 | 1.09
0.1 µM | 0.98 | 0.962
0.316 µM | 0.979 | 1.02
1 µM | 0.982 | 1.02
3.16 µM | 0.975 | 0.992
10 µM | 0.973 | 0.909
31.6 µM | 0.977 | 0.866

Settings | GRmin
U2OS [4] | 0.864

Cc1cc(C(C)Nc2ccccc2)c2nc(N3CCOCC3)cc(=O)n2c1 (configuration not stated) [TGX221]
Settings | fractional viability, U2OS [2] | normalized growth rate inhibition value, U2OS [5]
0.00100578 µM | 0.988 | 1.1
0.00317827 µM | 0.986 | 1.06
0.0100433 µM | 0.988 | 1.04
0.0317369 µM | 0.986 | 1.02
0.100289 µM | 0.988 | 0.94
0.316912 µM | 0.99 | 1.02
1.00144 µM | 0.986 | 0.955
3.16456 µM | 0.986 | 1.08
10 µM | 0.977 | 1

Settings | GRmin
U2OS [4] | 0.951

Cc1nc(-c2cn3c(n2)-c2ccc(-c4cnn(C(C)(C)C(N)=O)c4)cc2OCC3)n(C(C)C)n1 [Taselisib]
Settings | GR50 [µM] | drug GRADE
U2OS [1] | 4.98 | –
U2OS [3] | – | 24.5

Settings | fractional viability, U2OS [2] | normalized growth rate inhibition value, U2OS [5]
0.00100578 µM | 0.987 | 1
0.00317827 µM | 0.983 | 0.924
0.0100433 µM | 0.979 | 0.852
0.0317369 µM | 0.973 | 0.765
0.100289 µM | 0.964 | 0.83
0.316912 µM | 0.952 | 0.69
1.00144 µM | 0.959 | 0.669
3.16456 µM | 0.937 | 0.604
10 µM | 0.856 | 0.389

Cn1nnc2c(C(N)=O)ncn2c1=O [Temozolamide]
Settings | fractional viability, U2OS [2] | normalized growth rate inhibition value, U2OS [5]
0.01 µM | 0.982 | 0.992
0.0316 µM | 0.982 | 1.07
0.1 µM | 0.981 | 0.975
0.316 µM | 0.977 | 1.05
1 µM | 0.975 | 0.984
3.16 µM | 0.978 | 0.894
10 µM | 0.98 | 0.954
31.6 µM | 0.975 | 1.02

Settings | GRmin
U2OS [4] | 0.955

Nc1ccc(-c2ccc3ncc4ccc(=O)n(-c5cccc(C(F)(F)F)c5)c4c3c2)cn1 [Torin2]
Settings | fractional viability, U2OS [2] | normalized growth rate inhibition value, U2OS [5]
0.000100578 µM | 0.988 | 0.795
0.000317827 µM | 0.985 | 0.854
0.00100433 µM | 0.986 | 0.924
0.00317369 µM | 0.988 | 0.826
0.0100289 µM | 0.988 | 0.841
0.0316912 µM | 0.989 | 0.85
0.100144 µM | 0.987 | 0.832
0.316456 µM | 0.985 | 0.916
1 µM | 0.971 | 0.523

Settings | GRmin | drug GRADE
U2OS [3] | – | 4.29
U2OS [4] | -0.853 | –

CC(=O)Nc1cccc(-n2c(=O)n(C3CC3)c(=O)c3c(Nc4ccc(I)cc4F)n(C)c(=O)c(C)c32)c1 [Trametinib]
Settings | fractional viability, U2OS [2] | normalized growth rate inhibition value, U2OS [5]
0.000100578 µM | 0.978 | 0.839
0.000317827 µM | 0.974 | 0.677
0.00100433 µM | 0.965 | 0.696
0.00317369 µM | 0.951 | 0.569
0.0100289 µM | 0.915 | 0.582
0.0316912 µM | 0.732 | 0.319
0.100144 µM | 0.524 | 0.0761
0.316456 µM | 0.442 | 0.0524
1 µM | 0.466 | 0.0402

CC[C@]1(O)C[C@@H]2CN(CCc3c([nH]c4ccccc34)[C@@](C(=O)OC)(c3cc4c(cc3OC)N(C)[C@H]3[C@@](O)(C(=O)OC)[C@H](OC(C)=O)[C@]5(CC)C=CCN6CC[C@]43[C@@H]65)C2)C1 [Vinblastine]
Settings | fractional viability, 0.00316 µM | fractional viability, 0.0316 µM | fractional viability, 0.316 µM | fractional viability, 3.16 µM | fractional viability, 31.6 µM | normalized growth rate inhibition value, 0.00316 µM | normalized growth rate inhibition value, 0.0316 µM | normalized growth rate inhibition value, 0.316 µM | normalized growth rate inhibition value, 3.16 µM | normalized growth rate inhibition value, 31.6 µM
U2OS [2] | 0.426 | 0.5 | 0.467 | 0.416 | 0.166 | – | – | – | – | –
U2OS [5] | – | – | – | – | – | 0.057 | 0.0629 | 0.0107 | -0.0225 | -0.258

Settings | drug GRADE
U2OS [3] | 3.36
